Experimental data taken from the NIST ThermoML archive (doi:10.1021/je0496950).
Several values for one entry are separate records, joined by “and”; a condition that tells them apart may be missing. Equal values may be shown once.

Columns and labels:
[1] = mn = molality of the nth substance listed, in mol/kg; conditions: 101 kPa, Liquid; for speed of sound: Pulse-echo method
[2] = 101 kPa, Liquid

[O-][Cl+3]([O-])([O-])[O-].[O-][Cl+3]([O-])([O-])[O-].[Zn+2] [zinc perchlorate] + CC#N
[1]
Conditions	mass density, 288.13 K [kg/m3]	mass density, 293.15 K [kg/m3]	mass density, 298.15 K [kg/m3]	mass density, 303.15 K [kg/m3]	mass density, 308.15 K [kg/m3]	mass density, 313.15 K [kg/m3]	mass density, 323.15 K [kg/m3]	speed of sound, 298.15 K [m/s]
m1 = 0.05169	797.728	792.369	786.992	781.587	776.154	770.69	759.656	1280.2
m1 = 0.09336	806.167	800.821	795.456	790.063	784.645	779.192	768.19	1281.9
m1 = 0.1233	812.307	806.971	801.611	796.227	790.815	785.374	774.39	1283.1
m1 = 0.1524	818.329	812.997	807.644	802.268	796.864	791.433	780.466	1284.2
m1 = 0.1817	824.45	819.125	813.78	808.412	803.019	797.595	786.657	1285.4
m1 = 0.2106	830.536	825.218	819.877	814.514	809.128	803.712	792.788	1286.8
m1 = 0.2379	836.415	831.101	825.768	820.412	815.033	809.624	798.715	1287.9
m1 = 0.2668	842.682	837.373	832.046	826.696	821.325	815.925	805.037	1289
m1 = 0.2944	848.641	843.338	838.017	832.675	827.308	821.916	811.045	1290.3

CC#N [acetonitrile]
[2]
Conditions	mass density
288.13 K	787.307 kg/m3 and 787.308 kg/m3 and 787.312 kg/m3
288.15 K	787.308 kg/m3
293.15 K	781.933 kg/m3 [middle of 4 runs]
298.15 K	776.532 kg/m3 [middle of 4 runs]
303.15 K	771.106 kg/m3 [middle of 4 runs]
308.15 K	765.645 kg/m3 and 765.664 kg/m3 and 765.649 kg/m3
313.15 K	760.158 kg/m3 [middle of 4 runs]
323.15 K	749.07 kg/m3 [middle of 4 runs]

CC#N [acetonitrile] + [Co+2].[O-][Cl+3]([O-])([O-])[O-].[O-][Cl+3]([O-])([O-])[O-]
[1], m2 = 0
Conditions	mass density [kg/m3]
288.13 K	787.307
293.15 K	781.933
298.15 K	776.535
303.15 K	771.114
308.15 K	765.664
313.15 K	760.181
323.15 K	749.107

CC#N [acetonitrile] + [Mn+2].[O-][Cl+3]([O-])([O-])[O-].[O-][Cl+3]([O-])([O-])[O-]
[1], m2 = 0
Conditions	mass density [kg/m3]
288.15 K	787.308
293.15 K	781.932
298.15 K	776.531
303.15 K	771.102
308.15 K	765.645
313.15 K	760.156
323.15 K	749.07
